# How the values were obtained:
# [1] = In vitro penetration rate across isolated human skin in modified Franz cells (HPLC); conditions: parent drugs; at lowest detectable value, considered not detectable
# Protocol: The penetration rates of HPPs/HPCs and their parent drugs through human skin were measured in vitro by modified Franz cells. The Franz cells had two chambers, the top sample chamber and the bottom receiving chamber. The human skin tissue (360-400 p.m thick) that separated the top and the receiving chambers was isolated from the anterior or posterior thigh areas.
# A compound tested (2 mL, 20% in 0.2 M phosphate buffer, pH 7.4) was added to the sample chamber of a Franz cell. The receiving chamber contains 10 ml of pH 7.4 phosphate buffer (0.2 M) which was stirred at 600 rpm. The amount of the tested compound penetrating the skin was determined by high-performance liquid chromatography (HPLC) method.
# mice = test: Acetic acid writhing inhibition in mice, transdermal; type: in vivo, mouse; conditions: 10 mg/kg transdermally to the neck, acetic acid i.p. 30 minutes later; for rate of writhing inhibition (%): based on the control group; for No. of Writhings: control 35.0
# Protocol: The number of writhings that occurred when mice were administered an acetic acid solution intraperitoneally were counted, and the rate of inhibition based on the control group was calculated. […] 30 minutes later, acetic acid solution was administered. The group A was the control group.
# Osborne-Mendel rats = conditions: injected intraperitoneally, rats starved overnight, high-fat diet; cited from earlier work
# rats = test: Solicitation and copulation of rats treated transdermally with HPPs/HPCs of Melanocortin II; type: in vivo, rat; conditions: for increase in copulation comparing to the control group / increase in solicitation comparing to the control group: 2 mg/kg once per day for 5 days; for Increased Copulation / Increased Solicitation: 2 mg/kg on the back once per day for 5 days, control = 1
# Protocol: The same dosage of cyclo(1,6)-Ac-Nle-Asp-His-Phe-Arg(NO2)-Trp-Lys-OCH2CH2N(CH2CH3)2.HCl(SEQ ID NO: 201) (peptide B) was applied to the back of another group of male rats (Group B-1, 30 rats). Rats of a control group were not treated with any drug. […] 6 fold increase in solicitation and 3 fold increase in copulation for Group B-1 in rats were observed comparing to the control group (Table 15).
# 2 mg/kg peptide A and peptide B in 0.2 ml of pH 7.0 phosphate buffer (0.1M) were applied to the back of both male rats (30 rats) and female rats (30 rates) once per day for 5 days. Rats of a control group were not treated with any drug.
# [2] = male and female rats treated (Groups A-2, B-2)
# [3] = male rats treated (Groups A-1, B-1)
compound,measurement,setting,value
"CSCC[C@H](NC(=O)[C@H](Cc1ccccc1)NC(=O)CNC(=O)CNC(=O)[C@@H](N)Cc1ccc(O)cc1)C(=O)O [Met-enkephalin, H-Tyr-Gly-Gly-Phe-Met-OH]",apparent flux value,[1],1 μg/cm^2/h
Ac-Tyr(Ac)-D-Ala-Gly-Phe-Leu-OCH2CH2N(CH2CH3).HCl,rate of writhing inhibition (%),mice,85%
same,No. of Writhings,mice,5.2
H-Val-Pro-Asp-Pro-Arg OH,food intake (in words),Osborne-Mendel rats,dose-dependent reduction in food intake
HCl.H-Tyr(Ac)-D-Ala-Gly-Phe-Leu-OCH2(CH2)4—CH3 [B],rate of writhing inhibition (%),mice,75%
same,No. of Writhings,mice,8.6
HCl.H-Tyr(Ac)-D-Ala-Gly-Phe-Met(O)—OL,rate of writhing inhibition (%),mice,91%
same,No. of Writhings,mice,3.2
"cyclo(1,6)-Ac-Nle-Asp-His-Phe-Arg(diAc)-Trp-Lys-OCH2CH2N(CH2CH3)2.HCl",increase in copulation comparing to the control group,rats; [2],5 fold
same,increase in solicitation comparing to the control group,rats; [2],6 fold
same,Increased Copulation,rats; male and female rats treated,5
same,Increased Solicitation,rats; male and female rats treated,6
same,increase in copulation comparing to the control group,rats; [3],3 fold
same,increase in solicitation comparing to the control group,rats; [3],5 fold
same,Increased Copulation,rats; male rats treated,3
same,Increased Solicitation,rats; male rats treated,5

# From patent publication US9248109B2, “High penetration prodrug compositions of peptides and peptide-related compounds” (priority 2009, dated 2016)
